In experiment [1] the test system is type 2 herpes simplex virus, strain G (ATCC VR-734). In words: Lethal herpes infection in mice by vaginal infection, protective effect of gels. It is filed as in vivo. From the text: Eight groups of animals, containing 15 subjects each, were formed to conduct the experiment.
Groups 1-6: infected with type 2 herpes simplex virus and administered gels I-VI (experimental groups 1-6).
Group 8: infected with type 2 herpes simplex virus and not administered any pharmaceutical preparations (virus control).
Type 2 herpes simplex virus, strain G (ATCC VR-734, USA), was used in the experiment. The virus was cultivated in the T98G cell culture (human brain glioblastoma), then adapted to mice by two consecutive intracerebral passages. To prepare the final infective material, the animals were intracerebrally infected with brain tissue homogenate from the second passage; on the 4th day post infection, the animals were euthanized, their brain was extracted, homogenized, used to infect Vero cells, and incubated for 48 hours at 37° C. under 5% CO2 using the culture fluid, in which the infectious titer of the virus was previously determined, as the infective material.
The murine vaginal epithelium was injured with a scarifier for vaginal smears, after which the animals were infected with 30 μl of the virus at a 10^6 TCID50 dose. The examined gels were administered to mice in […] per the following regimen: 0.05 ml once a day 1, 2, 3, 4, and 5 days post infection.
The animals were followed for 18 days; their mortality was recorded daily. Cessation of mortality was defined by the absence of mice with signs of herpetic vaginitis (vaginal discharge) and complications thereof (posterior limb paresis). Based on the mortality data for each group, the mortality rate (Mr, ratio of the fallen animals at the time of control to the total number of infected animals in the group), protective index (IP, ratio of the difference in the percentage of mortality in the control and experimental groups to the percentage of mortality in the control group), and average life span of the animals (ALS) per each day of the experiment were calculated.
The protective effect of the peptide-containing gels was assessed by the reduction in the specific mortality and increase in the life span of the animals compared to the control group that wasn't treated.

Experiment [2] relates to human herpes simplex virus type 2 (HPV-2). To be noted: male rabbits, local application; cited from earlier work.
The conditions of experiment [3]: guinea pigs, HPV-2; cited from earlier work.
A further experiment concerns HPV-2. To be noted: guinea pigs; cited from earlier work.
Setting [4] is: n = 15, vaginal HSV-2 10^6 TCID50, gel 0.05 ml once a day days 1-5, followed 18 days.
Where [5] appears, read: n = 15, vaginal HSV-2, followed 18 days.

The text below walks through data of patent US20200046800A1, “BIOCIDAL AGENT” ("VERTA RESEARCH-PRODUCTION COMPANY" LTD, priority 2017, published 2020).

Take `Nc1nc2c(ncn2COCCO)c(=O)[nH]1` [Acyclovir]: in experiment [1] (setting [4]), the “Number of dead animals” value stood at 4 and the “Number of survived animals” value was 11. Besides, in experiment [1] (setting [5]), the “ALS (average life span)” value was 13.9 24 hrs and the Mortality stood at 26.7%. Also, in experiment [1] (versus virus control, n = 15), the “Increase in ALS” value was found to be 2.6.
As for “NH2-His-Gly-Val-Ser-Gly-His-Gly-Gln-His-Gly-Val-His-Gly-COOH (H-HGVSGHGQHGVHG-OH) [Peptide 1]”, in experiment [2], the “Length of the primary genital herpes outbreak” value was “significantly shortened” and the “Viral load on the body” value was “reduced”. In addition, in experiment [3], the “Discharge of the virus from the lesions” value is given as “statistically significant reduction”. For the same molecule, the Disease duration entry with HPV-2 is listed as “statistically significant reduction”.
